Source: patent US11446270B2, “Leonurine crystal and use thereof in preparation of insulin sensitizer, hypoglycemic drug and lipid-lowering drug” (ZHUHAI HENGQIN NEW DISTRICT ZHONGZHU ZHENGTAI MEDICAL …, priority 2017, dated 2022)
Entries after “also recorded” stand apart in the source; their conditions may differ.

Key:
[1] = test system: New Zealand rabbits; test: Carotid atherosclerotic plaque intima-media thickness (IMT) by high-frequency ultrasound in rabbit atherosclerosis model; type: in vivo; conditions: for intimal-medial thickness (IMT) at the largest carotid plaque: high fat diet 8 weeks, vs model group
Method: Forty-two male New Zealand rabbits weighed 2.0 to 2.5 kg were fed with normal diet to adapt to the housing environment for one week before experiment, and then the rabbits were fed with high fat diet (1% cholesterol; SF00-221 SpecialtyFeed Australia) for 8 weeks to establish the rabbit model of atherosclerosis. […] When the rabbits were started to give high fat diet, various drugs or vehicle (NC and MD groups) were simultaneously administered. The drug was administered once a day continuously for 8 weeks and weighed once a week to adjust the dose of drugs. Rabbits were caged in an air-conditioned room (24±1° C. room temperature and 55±5% air humidity) with 12 h light per day and had free access to water and were fed ad libitum. High-frequency ultrasound detection of carotid plaque: the high-frequency microscopy imaging system (Vevo770) was used to detect carotid atherosclerotic plaque at the end of the 8th week of the experiment. The rabbits were anesthetized with 3% pentobarbital sodium in the dose of 30 mg/kg. Using the RMV707B probe (resolution 30 MHz) to observe the carotid bifurcation plaque and measure the blood flow velocity on the carotid artery long axis section by two-dimensional ultrasound. Then adjust direction of the probe so that the angle between the probe and the carotid artery is less than 60° to obtain the long-axis view. The intima-media thickness (IMT) is measured at the maximum end-diastolic plaque. The measurement to detected IMT is taking the vertical distance between the lumen-intimal echo to the medial-outer membrane echo, and detecting the atherosclerotic plaque on the right common carotid artery bifurcation proximal. The carotid ultrasound images and the maximum IMT at the plaque were analyzed, and the morphology of atherosclerotic plaques was evaluated. The data were analyzed by Vevo770 microscopy imaging system software. All measurements were repeated twice in the same area and averaged.

[2] = Hygroscopicity, dynamic vapor sorption (DVS), 0-95% RH; type: physicochemical; conditions: for hygroscopicity (in words) / change of crystal form: range of 0-95% relative humidity
Method: Dynamic vapor sorption (DVS) method, instrument model: SMS DVS Intrinsic, 0˜95% RH, temperature: 25° C.; FTIR method, instrument model: Nicolet 6700, sectral range: 4000˜400 cm^−1, resolution ratio: 4 cm^−1, scanning times: 32, the infrared spectra of the samples were determined by KBr pressed-disk technique method, temperature: 25° C.;
In this invention, it is named as leonurine crystal form A, which is monohydrate crystal form, square block crystal (as shown in FIG. 13), no crystal transformation before melting, dehydrates at 120˜150° C. and transform into anhydrous crystal form B, and decomposes at about 250° C. […] Under the condition of, in the suspension experiment at 25° C., in methanol, ethanol, isopropanol, acetone, acetonitrile, tetrahydrofuran, nitromethane, ethyl acetate, isopropyl acetate, isoamyl alcohol, methyl tert-butyl ether, toluene, methyl isobutyl ketone, n-hexane, n-heptane, ether, dichloromethane, chloroform, petroleum ether, water and other solvents; and under the condition of, in the suspension experiment at 50° C., in methanol, ethanol, acetone, methyl ethyl ketone, isopropyl acetate, methyl tert-butyl ether, toluene, n-hexane, n-heptane, diethyl ether, chloroform, petroleum ether, water and other solvents; and under most solvent conditions in suspension and volatilization of mixed solvents at 25° C. and 50° C., form A can be obtained. […] In a range of 0˜95% RH, the dehydration and water absorption behavior of the crystal form is very weak.

[3] = test system: Sprague-Dawley rats; test: Chronic administration for 3 weeks, fasting blood glucose of rats; type: in vivo, rat; conditions: vs solvent control, listed as leonurine crystal form A
Method: Forty male Sprague-Dawley rats weighed 180 to 220 g were randomly divided into 4 groups (10 rats each group): control group are treated with equal volume of DMSO, and the treatment groups were administered at 30 mg/kg per day, 60 mg/kg per day, and 120 mg/kg per day of leonurine crystal form A respectively, where leonurine crystal form A was dissolved in DMSO at concentrates of 30 mg/ml, 60 mg/ml and 120 mg/ml, and the volume of vehicle administered intragastrically in each rat was 1 ml per kg of body weight. The rats were treated with leonurine crystal form A or DMSO once a day continuously for 3 weeks, and the body weight and fasting blood-glucose were detected at third week. The rats were fasted (allowed water ad libitum) for 12 h before experiment. Fasting blood-glucose and body weight were tested after 1 h of administered drugs. The rats were not given drugs on the next days for one week, and the body weight and fasting blood-glucose were detected at forth week. The data were analyzed by SPSS statistical software (version 11.5), and results were expressed as the mean±standard error of the mean (mean±SEM). Multiple group comparisons were tested by one-way analysis of variance (ANOVA). P<0.05 was considered as statistically significant.

[4] = test system: rhesus monkey; test: Model of rhesus monkey with hyperlipidemia, long-term administration; type: in vivo
[5] = test system: Sprague-Dawley male rats; test: Single dosage acute administration, insulin sensitivity test in rats; type: in vivo; conditions: rat, vs DMSO control
Method: Thirty-two Sprague-Dawley male rats (body weight 180-220 g) were randomly divided into 4 groups, gave control solvent and three different doses of leonurine crystal form A respectively. The control solvent group was given an equal volume of DMSO, and the treatment groups were administered with three doses of 30 mg/kg, 60 mg/kg and 120 mg/kg respectively, 8 rats per group, where the leonurine crystal form A was dissolved in DMSO at concentrations of 30 mg/ml, 60 mg/ml and 120 mg/ml respectively. The volume of solvent obtained per rat is one millilitre per kilogram of body weight. The route of administration is gavage, weighing before gavage, and taking blood from tail vein to measure blood glucose. Each rat was tested for insulin sensitivity 1 hour after administration of drugs or control solvent, the dose of insulin selected was 0.5 units per kilogram of body weight, intraperitoneal injection of insulin, blood glucose was measured before injection and at 15, 30, 60, 90, and 120 minutes after injection. The data were analyzed by SPSS 11.5 statistical software, and the results were expressed as mean ±standard error of the mean (mean±SEM), pairwise comparison between groups was examined by one-way analysis of variance (ANOVA), P<0.05 was considered significant difference between the groups.

[6] = listed as leonurine crystal form A

hygroscopicity, water absorption ([2]; 60% RH): 60% RH, water absorption 0.07%
hygroscopicity, water absorption ([2]; 80% RH): 80% RH, water absorption 0.12%
hygroscopicity (in words) [2]: no or almost no hygroscopicity
change of crystal form ([2]; listed as Crystal Form A): didn't change
hygroscopicity (in words) ([2]; listed as Crystal Form A): no or almost no hygroscopicity
change of crystal form [2, 6]: does not change
hygroscopicity (in words) [2, 6]: no or almost no hygroscopicity
moisture absorption ([2]; relative humidity from 0 to 95%): about 0.15%
Compound: COc1cc(C(=O)OCCCCNC(=N)N)cc(OC)c1O [crystal form A, 4-guanidino-1-butyl 4-hydroxy-3,5-dimethoxybenzoate]
carotid plaque thickness / IMT growth induced by high fat ([1]; high fat diet 8 weeks, 4, 8, 16 mg/kg/day, dose-dependent effect): significantly inhibited IMT growth
intimal-medial thickness (IMT) at the largest carotid plaque ([1]; high dose group 16 mg/kg/d): decrease plaque thickness
intimal-medial thickness (IMT) at the largest carotid plaque ([1]; medium dose group 8 mg/kg/d): decrease plaque thickness
fasting blood glucose of rats ([3]; 60 mg/kg/d for 3 weeks, fourth week): significantly reduced; also recorded: decreased fasting blood glucose
fasting blood glucose of rats ([3]; 60 mg/kg/d, after 3 weeks of continuous administration): had not statistically difference; also recorded: not statistically significant
fasting blood glucose of rats ([3]; 120 mg/kg/d for 3 weeks, fourth week): significantly reduced; also recorded: decreased fasting blood glucose
fasting blood glucose of rats ([3]; 120 mg/kg/d, after 3 weeks of continuous administration): significant reduce; also recorded: significantly decreased
low-density lipoprotein (LDL-C) [4]: decreasing
total cholesterol (TC) [4]: decreasing
insulin sensitivity curve (blood glucose after insulin injection) ([5]; single gavage 30 mg/kg): basically coincident with the control group
insulin sensitivity curve (blood glucose after insulin injection) ([5]; single gavage 60 mg/kg, 60 minute time point, listed as leonurine crystal form A, 60 mg/kg): reached statistical significance; also recorded: decreased significantly
insulin sensitivity curve (blood glucose after insulin injection) ([5]; single gavage 120 mg/kg, 60 minute time point): no statistically significant difference was observed
